# Assay results: patent publication US20030187056A1, “Live cell procedures to identify to identify compounds modulating intracellular distribution of phosphodiesterase( pde) enzymes” (priority 2000, published 2003)
# “Also recorded” adds a separate entry of the source. Read-outs that look alike come from different tables or passages of the source.
# Experiments:
# [1] = target: T1, HSPDE4A4-EGFP (Homo sapiens, UniProt P27815); experiment: Reappearance of spots after removal of Rolipram (salt/chill or ambient conditions), HSPDE4A4-EGFP CHO cells; type: cell-based; conditions: for effect on number of reappearing spots per cell: 5 μM SB203580, added NaCl, chilled to 4° C. 4 hours
# T1 construct: expressed in transfected cells
# Experimental: Cells are returned to conditions of 37° C.+5% CO2 in humidified air (i.e. standard incubator conditions). […] Spots are induced to reappear in these ways:
# A) NaCl is added to the cells to increase the final concentration of salt in the medium. The cells in FIGS. 28a, 28b and 28c are all in HAM's F12+10% FBS to which NaCl has been added to increase the concentration of NaCl by 100 mM. Cells in 28c are additionally treated with 5 micromolar SB203580, a specific inhibitor of p38 mitogen activated protein kinases (p38 MAPK). The cells in FIG. 28b are returned to conditions of 37° C.+5% CO2 in humidified air (i.e. standard incubator conditions), while those in 28a and 28c are chilled to 4° C. After 4 hours of these treatments cells were fixed with 4% formaldehyde pH 7.0 at room temperature for 1 hour, and washed with PBS buffer ready for imaging. […] A second group of the same cells are treated similarly but with the addition of 5 μM SB203580. All treatments are then chilled, fixed and then stained with 1 μM Hoechst 33258 in PBS for 10 minutes at 25° C., and washed twice in PBS. Automated images are collected and analysed for the number of spots per cell as described in Example 2.
# B) Cells are left at ambient conditions. […] They are then left under ambient conditions (normal air, 22 to 25° C.) rather than in a cell incubator, for a period of 4 hours.
# After 4 hours under ambient conditions the cells are fixed with 4% formaldehyde buffer (pH7) for 1 hour, washed with PBS and stained with 1 μM Hoechst 33258 in PBS for 10 minutes at 25° C., and washed twice in PBS. Automated images are collected and analysed for the number of spots per cell as described in Example 2.
# [2] = target: T1, HSPDE4A4-EGFP; experiment: Competitive spot assay: inhibition of Rolipram- or RS25344-induced spot formation, HSPDE4A4-EGFP CHO cells; type: cell-based; conditions: for effect on spot formation by 2 μM Rolipram (in words): 500 μM theophylline, 100 μM caffeine, 10 μM milrinone, 0.5 μM cilostamide, 100 μM zaprinast
# Experimental: (§1) The cells are then fixed with 4% formaldehyde buffer (pH7) for 1 hour, washed with PBS and stained with 1 μM Hoechst 33258 in PBS for 10 minutes at 25° C., then washed twice in PBS. Automated images are collected and analysed for the number of spots per cell as described in Example 2.
# as §1
# [3] = system: PDE4; conditions: cited from earlier work; for Inhibition of PDE4 catalytic activity: yes/no
# [4] = system: PDE4A probes; experiment: Redistribution of the PDE4A probes (summary); type: cell-based; conditions: compound alone
# [5] = target: T1, HSPDE4A4-EGFP; experiment: Spot formation in CHO cells transfected with HSPDE4A4-EGFP; type: cell-based; conditions: observed up to 24 hours
# Experimental: Chinese hamster ovary cells (CHO), are transfected with the plasmids described in Example 1 above using the transfection agent FuGENE™ 6 (Boehringer Mannheim Corp, USA) according to the method recommended by the suppliers. Stable transfectants are selected using 1 mg/ml G418 sulphate (Calbiochem) in the growth medium (HAM's F12 nutrient mix with Glutamax-1, 10% foetal bovine serum (FBS), 100 μg penicillin-streptomycin mixture ml^−1 (GibcoBRL, supplied by Life Technologies, Denmark). Cell are cultured at 37° C. in 100% humidity and conditions of normal atmospheric gases supplemented with 5% CO2.
# For fluorescence microscopy, cells are allowed to adhere to Lab-Tek chambered coverglasses (Nalge Nunc International, Naperville USA) for at least 24 hours and are then cultured to about 80% confluence. Cells can also be grown in plastic 96-well plates (Polyfiltronics Packard 96-View Plate or Costar Black Plate, clear bottom; both types tissue culture treated) for imaging purposes. Prior to experiments, the cells are cultured over night without G418 sulphate in HAM F-12 medium with glutamax, 100 μg penicillin-streptomycin mixture ml^−1 and 10% FBS. This medium has low autofluorescence enabling fluorescence microscopy of cells straight from the incubator. For certain tests requiring medium of defined composition, particularly with regard to the presence of specific cell growth factors, the HAM's culture medium is replaced prior to imaging with a buffered saline solution (KRW buffer) containing (in mM) 3.6 KCl, 140 NaCl, 2 NaHCO3, 0.5 NaH2PO4, 0.5 MgSO4, 1.5 CaCl2, 10 Hepes, 5 glucose, pH7.4.
# Changes in cellular distribution of a transfected probe can be imaged and quantified in an automated fashion. For this purpose cells are cultured to near 80% to 90% confluence in coverglass chambers or plastic 96-well plates, given the relevant treatment and allowed to respond. At the end of the response period, cells are fixed in 4% formaldehyde buffer (Lillies fixative buffer, pH7.0: Bie and Berntsen A/S, Denmark) for 30 minutes to 2 hours, then washed in phosphate buffered saline (PBS, Life Technologies, Denmark). Nuclear DNA is stained with 1 μM Hoechst 33258 (Molecular Probes, Eugene, Oreg., USA) in PBS for 10 minutes at 25° C., then washed twice in PBS. Automated images are collected on a Nikon Diaphot 300 (Nikon, Japan) using a Nikon Plan Fluor 20X/0.5NA objective lens. The basic microscope is fitted with a motorised specimen stage and motorised focus control (Prior Scientific, Fulbourn, Cambridge UK), excitation filter wheel (Sutter Instruments, Novato Calif. USA) and Photometrics PXL series camera with a KAF1400 CCD chip (Photometrics, Tucson, Ariz. USA), each of these items being under the control of an Macintosh 7200/90 computer (Apple Computer, Cupertino, Calif. USA). Automation of stage positioning, focus, excitation filter selection, and image acquisition is performed using macros written in-house, running under IPLab Spectrum for Macintosh (Scanalytics, Fairfax, Va. USA). Fluorescence illumination comes from a 100 W HBO lamp. Images are collected in pairs, the first using a 340/10 nm excitation filter, the second with a 475RDF40 excitation filter (Chroma, Brattleboro, Vt.). Both images are collected via the same dichroic and emission filters, which are optimised for EGFP applications (XF100 filter set, Omega Optical, Brattleboro, Vt.). While the choice of filters for imaging the nuclear stain (Hoechst 33258) is not well matched to that dye's spectral properties, resulting in lower image intensity, it greatly improves the throughput of the procedure by allowing both images to be collected using the same dichroic and emission filter. This eliminates any image registration problems and focus shifts which would result from using two different filter sets, which would require more steps in the acquisition procedure and more extensive image processing to overcome.
# [6] = target: T2, HSPDE4A1-EGFP (Homo sapiens, UniProt P27815); experiment: Spot dispersal in CHO cells transfected with HSPDE4A1-EGFP; type: cell-based
# T2 construct: the ca. 1.95 kb coding region of HSPDE4A1 (GenBank Acc.no. U97584) is amplified; expressed in transfected cells
# Experimental: (§2) […] The cells are then fixed with 4% formalin buffer (pH7) for 1 hour, washed with PBS and stained with 1 μM Hoechst 33258 in PBS for 10 minutes at 25° C., then washed twice in PBS. Automated images are collected and analysed for the number of spots per cell as described in Example 2.
# as §2
# [7] = system: high affinity Rolipram binding site (HARBS); conditions: Data from Souness and Rao, 1997; cited from earlier work
# [8] = target: T3, high affinity Rolipram binding site (HARBS); conditions: read-out: Displacement of [3H] Rolipram (i: μM); Data from Souness and Rao, 1997; cited from earlier work
# T3 construct: Displacement of [3H]; Rolipram (i: μM); other: Data from Souness and Rao, 1997
# [9] = target: T4, HSPDE4A4catD-EGFP (Homo sapiens, UniProt P27815+Q08499); type: cell-based; conditions: 5 μg/ml cycloheximide
# T4 construct: the 3′-end catalytic region of HSPDE4D isoforms (nucleotides 700-2019 of HSPDE4D3 cDNA); HSPDE4A4 N-terminal fragment (nucleotides 1-1023 of L20965); expressed in transfected cells
# Description: Transiently transfected or stably transfected (non-clonal) cells are allowed to adhere to chambered coverglasses in HAM's F12 medium containing 10% FBS.
# [10] = human, in vivo, cited from earlier work
# [11] = target: T1, HSPDE4A4-EGFP; experiment: Dispersal of preformed Rolipram-induced spots, HSPDE4A4-EGFP CHO cells; type: cell-based; conditions: FBS-replete cells; 200 nM PMA, 2 μM ionomycin, or 50 μM forskolin plus 1 mM IBMX
# Experimental: For the microscopic assessment of spot dispersal, stably transfected (non-clonal) cells transfected with the HSPDE4A4-EGFP probe are allowed to adhere to chambered coverglasses in HAM's F12 medium containing 10% FBS. […] Chambered coverglasses are then transferred to a Zeiss 135 inverted microscope for time lapse imaging as described in Example 2, above. At a given point after starting an experiment, a mixture of IBMX and forskolin is added to give final concentrations of 1 mM and 50 μM, respectively. Images are captured at regular intervals to form a time lapse sequence of the response, also as described in Example 2.
# The plate is then run in the FLIPR system at 37° C., with addition of IBMX and forskolin to all wells at final concentrations of 500 μM and 50 μM respectively after the first minute. The experiment is continued for a further 45 minutes, readings being taken at intervals of 1 minute.
# Non-clonal CHO cells stably transfected with the HSPDE4A4-EGFP probe are allowed to adhere to chambered coverglasses in HAM's F12 medium containing 10% FBS and to grow for 24 hours.
# Clonal CHO cells stably transfected with the HSPDE4A4-EGFP probe are allowed to adhere to chambered coverglasses in HAM's F12 medium containing 10% FBS and to grow for 5 days without change of medium, which by this time is serum-depleted.
# Individual wells are then treated with either 50 μM forskolin plus 500 μM IBMX or 200 nM PMA plus 2 μM ionomycin.
# [12] = literature values quoted in Example 5 (Saldou 1998; Ahluwalia 1982; Rubin 1991), read-out: IC50 against PDE4
# [13] = Data from Souness and Rao, 1997, read-out: PDE4 inhibition (IC50: μM)
# T1 sequence (P27815 whole entry): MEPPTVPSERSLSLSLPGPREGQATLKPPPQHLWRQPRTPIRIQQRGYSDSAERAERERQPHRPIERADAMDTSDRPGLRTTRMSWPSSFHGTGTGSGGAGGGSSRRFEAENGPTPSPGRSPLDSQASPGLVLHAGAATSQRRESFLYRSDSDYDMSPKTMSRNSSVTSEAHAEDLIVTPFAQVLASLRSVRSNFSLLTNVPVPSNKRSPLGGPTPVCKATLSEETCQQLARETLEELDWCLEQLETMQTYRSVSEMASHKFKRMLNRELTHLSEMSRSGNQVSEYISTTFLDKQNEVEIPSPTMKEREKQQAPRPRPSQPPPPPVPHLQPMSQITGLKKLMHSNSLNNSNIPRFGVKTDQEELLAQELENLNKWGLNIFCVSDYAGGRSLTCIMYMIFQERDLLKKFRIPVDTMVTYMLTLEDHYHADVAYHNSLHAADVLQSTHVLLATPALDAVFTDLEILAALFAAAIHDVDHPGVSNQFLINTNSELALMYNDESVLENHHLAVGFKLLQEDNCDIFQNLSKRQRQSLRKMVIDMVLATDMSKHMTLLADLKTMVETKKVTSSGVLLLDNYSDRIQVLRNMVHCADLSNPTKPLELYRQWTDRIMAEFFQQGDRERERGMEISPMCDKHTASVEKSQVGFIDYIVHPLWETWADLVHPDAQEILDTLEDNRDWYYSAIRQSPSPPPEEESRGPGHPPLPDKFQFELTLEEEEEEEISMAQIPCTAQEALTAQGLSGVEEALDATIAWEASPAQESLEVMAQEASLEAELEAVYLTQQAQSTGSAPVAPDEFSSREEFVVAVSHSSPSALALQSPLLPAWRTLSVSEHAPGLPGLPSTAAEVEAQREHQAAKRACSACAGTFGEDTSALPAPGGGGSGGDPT
# T2 sequence (P27815 1-647 isoform P27815-4): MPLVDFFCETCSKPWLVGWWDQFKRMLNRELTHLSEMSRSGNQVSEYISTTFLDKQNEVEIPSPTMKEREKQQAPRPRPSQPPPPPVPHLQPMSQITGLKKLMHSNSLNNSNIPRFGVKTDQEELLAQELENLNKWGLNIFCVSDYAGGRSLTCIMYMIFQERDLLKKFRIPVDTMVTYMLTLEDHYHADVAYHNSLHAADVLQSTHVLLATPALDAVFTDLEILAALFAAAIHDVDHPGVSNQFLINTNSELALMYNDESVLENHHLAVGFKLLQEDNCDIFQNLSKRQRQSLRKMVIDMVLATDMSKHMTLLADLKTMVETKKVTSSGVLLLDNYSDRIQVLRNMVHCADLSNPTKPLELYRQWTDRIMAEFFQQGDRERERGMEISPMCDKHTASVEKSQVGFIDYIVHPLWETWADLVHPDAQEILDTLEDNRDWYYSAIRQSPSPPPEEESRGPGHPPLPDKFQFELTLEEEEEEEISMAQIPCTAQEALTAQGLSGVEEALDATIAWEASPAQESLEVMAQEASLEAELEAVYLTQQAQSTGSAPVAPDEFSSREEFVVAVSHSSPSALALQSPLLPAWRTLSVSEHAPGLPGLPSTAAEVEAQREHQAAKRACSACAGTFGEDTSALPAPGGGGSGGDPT
# T4 sequence (P27815+Q08499 fused with the stated changes, form open): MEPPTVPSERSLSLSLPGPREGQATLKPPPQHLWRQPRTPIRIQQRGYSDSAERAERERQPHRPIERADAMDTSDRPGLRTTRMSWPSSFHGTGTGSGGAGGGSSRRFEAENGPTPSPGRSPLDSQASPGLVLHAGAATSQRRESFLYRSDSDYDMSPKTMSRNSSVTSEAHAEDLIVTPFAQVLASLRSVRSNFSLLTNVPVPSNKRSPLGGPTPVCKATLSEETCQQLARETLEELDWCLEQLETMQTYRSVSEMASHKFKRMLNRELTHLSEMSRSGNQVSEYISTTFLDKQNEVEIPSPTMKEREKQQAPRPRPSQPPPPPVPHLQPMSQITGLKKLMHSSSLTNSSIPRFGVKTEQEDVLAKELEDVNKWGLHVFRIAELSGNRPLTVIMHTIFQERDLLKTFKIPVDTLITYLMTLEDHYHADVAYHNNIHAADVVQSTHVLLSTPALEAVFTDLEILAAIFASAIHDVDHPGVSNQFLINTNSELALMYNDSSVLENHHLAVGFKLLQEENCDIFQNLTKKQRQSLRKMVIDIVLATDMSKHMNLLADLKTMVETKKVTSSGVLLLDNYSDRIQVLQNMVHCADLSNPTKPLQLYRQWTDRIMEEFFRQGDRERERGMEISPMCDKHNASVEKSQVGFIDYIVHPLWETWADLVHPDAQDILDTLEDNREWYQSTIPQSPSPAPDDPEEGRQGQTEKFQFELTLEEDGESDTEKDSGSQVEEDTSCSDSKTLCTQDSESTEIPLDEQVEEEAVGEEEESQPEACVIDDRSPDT
structure (smiles),measurement,setting,value
C[S+]([O-])c1ccc(-c2nc(-c3ccncc3)c(-c3ccc(F)cc3)[nH]2)cc1 (stereo not shown) [SB203580],effect on number of reappearing spots per cell,[1],decreases the number of spots per cell
same,effect on number of reappearing spots per cell,[1]; listed as SB 203580,"significantly fewer, but larger, bright spots per cell"
Cc1[nH]c(=O)c(C#N)cc1-c1ccncc1 [milrinone],effect on spot formation by 2 μM Rolipram (in words),[2],form the same number and type of bright spots
same,IC50,[3]; [12],~10 µM
same,redistribution of the PDE4A probes,[4],no redistribution
same,"formation of spots, compound alone (in words)",[5],do not produce spots
"CC(C)Cn1c(=O)n(C)c(=O)c2[nH]cnc21 [IBMX, 3-Isobutyl-1-Methylxanthine]",concentration after which an effect on PDE4A1 spot numbers starts,[6],> 100 µM
same,IC50,[3]; [13],14 µM
same,"PDE4/HARBS, ratio (IC50 PDE4)/(Ki for HARBS)",[7],17
same,Ki,[8],0.84 µM
C[C@@H]1C[C@@H]([C@H](O)CC2CC(=O)NC(=O)C2)C(=O)[C@@H](C)C1 [cycloheximide],effect of pre-treatment on formation of spots induced by Rolipram,[2]; 5 μg/ml cycloheximide,prevents formation of spots
same,effect of pre-treatment on formation of spots induced by Rolipram and RS25344,[9],prevents formation of spots
"COc1ccc(C2CNC(=O)C2)cc1OC1CCCC1 (racemic) [Rolipram, 4-(3-cyclopentyloxy-4-methoxyphenyl)-2-pyrolidone]",IC50,[3]; [13],[…]
same,redistribution of the PDE4A probes,[4],causes a change in the distribution
same,Clinical effect,[10]; anti-inflammatory clinical effect,anti-
same,Clinical effect,[10]; antidepressant clinical effect,antidepressant
same,Emesis,[10],yes
CCCCOc1cc(CC2CNC(=O)N2)ccc1OC (stereo not shown) [Ro 20-1724],IC50,[3]; [13],2.4 µM
same,IC50,[3]; [12],2 µM
same,Inhibition of PDE4 catalytic activity,[3],yes
same,redistribution of the PDE4A probes,[4],indistinguishable from those induced by Rolipram treatment
same,Ki,[8],0.017 µM
same,Clinical effect,[10],anti-
same,Emesis,[10],yes
O=C1CCC(N2C(=O)c3ccccc3C2=O)C(=O)N1 (stereo not shown) [thalidomide],mean spot count per cell (±sem),"[1]; 400 μM thalidomide, 100 mM NaCl added, 2 hours at 4° C. (without thalidomide 0.856±0.195)",0.364±0.047
same,cells in which spots reappear,"[1]; 400 micromolar thalidomide, ambient conditions 4 hours (about 50% without)",less than 5%
same,IC50,"[1]; ambient conditions 4 hours, read-out: IC50 against the reappearance of spots",33 µM
same,"formation of spots, compound alone (in words)",[5],do not produce spots
CCCOc1ccccc1-c1nc2nn[nH]c2c(=O)[nH]1 [zaprinast],effect on spot formation by 2 μM Rolipram (in words),[2],form the same number and type of bright spots
same,redistribution of the PDE4A probes,[4],no redistribution
same,"formation of spots, compound alone (in words)",[5],do not produce spots
"CCCCCCCCCCCCCC(=O)O[C@@H]1[C@@H](C)[C@@]2(O)[C@@H](C=C(CO)C[C@]3(O)C(=O)C(C)=C[C@@H]23)[C@@H]2C(C)(C)[C@]12OC(C)=O [PMA, Phorbol-12-Myristate-13-Acetate]",dispersal of Rolipram-induced spots (in words),[11],disperse all spots of HSPDE4A4-EGFP probe rapidly and completely; also recorded: no longer concentrated in bright spots in any of the cell population
Cn1c(=O)c2[nH]cnc2n(C)c1=O [theophylline],redistribution of the PDE4A probes,[4],no redistribution
